The text below walks through data of patent US11230711B2, “Inhibition of LET7I as a means to enhance the protective effect of progesterone against stroke” (UNIVERSITY OF NORTH TEXAS HEALTH SCIENCE CENTER, priority 2017, dated 2022).

Test [1] has as its system primary cortical astrocytes. Briefly: BDNF release from primary cortical astrocytes, BDNF in situ ELISA. The format is cell-based, mouse. How it is done:
To define the amount of endogenous BDNF released, we will modify the ELISA in situ protocol developed by Promega. A 96-well Nunc MaxiSorp surface polystyrene flat-bottom immunoplate was precoated with an anti-BDNF monoclonal antibody [diluted 1:1,000 in coating buffer (25 mM sodium bicarbonate and 25 mM sodium carbonate, pH 9.7)]. After rinsing off unbound antibody with TBS-T buffer [20 mM Tris-HCl (pH 7.6), 150 mM NaCl and 0.05% (v/v) Tween-20] and blocking the plate to minimize nonspecific binding, the culture media was added to the plate for 2 hrs to equilibrate the cell growth environment. […] The amount of specifically bound polyclonal antibody was then detected through the use of the anti-IgY-horseradish peroxidase (HRP) tertiary antibody (final concentration=0.5 μg/mL), which when exposed to the chromogenic substrate (TMB reagent; Promega), changes color in proportion to the amount of BDNF present in the sample. The color intensity was quantified by measuring the absorbance at 450 nm with a Viktor3 ELISA plate reader (Perkin Elmer). […] The amount of specifically bound polyclonal antibody was then detected through the use of the anti-IgY-horseradish peroxidase (HRP) tertiary antibody, which when exposed to the chromogenic substrate (TMB reagent, Promega), changes color in proportion to the amount of BDNF present in the sample. […]
Background: An ELISA detects its analyte on a solid surface through an enzyme-linked reagent.

The test system of the next test is BDNF. Description: pro- and mature BDNF protein in the penumbra after MCAo (Western blot). In kind it is in vivo, mouse. Particulars: MCAo mice; 14 days post stroke, compared to sham; FIG. 11D. The text has this:
(FIG. 11A) Representative immunoblots probed for Pgrmc1, pro- and mature-BDNF. (FIG. 11B) Quantitation graph of relative Pgrmc1 protein ratio to Gapdh (n=4-5 per group). (FIG. 11C) Quantitation graph of relative pro-BDNF protein ratio to Gapdh (n=4-5 per group). (FIG. 11D) Quantitation graph of relative mature BDNF protein ratio to Gapdh (n=4-5 per group). (FIG. 11E) Quantitation graph of relative let-7i expression in ischemic brain (n=4-5 per group). n.s: not significant, ** P<0.01 and *P<0.05 compared to sham, and #P<0.05 compared to P4+scrambled. Data are presented as the mean±SEM.
Primary cortical astrocytes and mouse brains were lysed with RIPA lysis buffer containing protease and phosphatase inhibitors, as previously described (44). After homogenization, samples were centrifuged at 45,000 rpm for 30 min at 4° C. and supernatants were collected. Total protein concentrations were determined using the Bio-Rad DC protein assay kit (Bio-Rad Laboratories). Cell lysates were separated by SDS-PAGE and transferred onto polyvinylidene fluoride membrane (Bio-Rad Laboratories) by electroblotting. Membranes were blocked with 5% skim milk in tris-buffered saline containing 0.2% Tween 20 (TBS-T) for 1 h at room temperature, followed by overnight incubations of primary antibodies at 4° C. […]

For the compound `CC(=O)[C@H]1CC[C@H]2[C@@H]3CCC4=CC(=O)CC[C@]4(C)[C@H]3CC[C@]12C` [P4, progesterone], the “BDNF release in P4-treated cultures” value in test [1] (astrocyte cultures, control cultures as little as 2 pg/ml) is ~250 pg/mL. Moreover, the “P4-induced BDNF release after OGD” value in test [1] (primary cortical astrocytes exposed to one-hour OGD, FIG. 8B) is recorded as “compromised”. The “mature BDNF level in the penumbra” value in the test with BDNF is “able to maintain the same level”.
